From patent US11582970B2, “2-aminoimidazole-phenyl derivatives useful for controlling microbial growth” (NORTH CAROLINA STATE UNIVERSITY, priority 2017, dated 2023)
Read-outs that look alike come from different tables or passages of the source.

Assays:
Type in all cases: cell-based
[1] = system: A. baumannii (Ab) AR# 70; assay: MIC of meropenem in combination with compound, CDC carbapenem resistant strain
Method: (§1) EXAMPLE 2: Six compounds were assessed for their activity in combination with meropenem against carbapenem resistant strains of A. baumannii (Ab), K. pneumoniae (Kp), and E. coli acquired from the Center for Disease Control (CDC). AR #—assigned AR-BANK number from the CDC.

[2] = system: E. coli AR# 55; assay: as above
Method: as §1

[3] = system: K. pneumoniae (Kp) AR# 68; assay: as above
Method: as §1

[4] = system: A. baumannii (Ab) AR# 56; assay: as above
Method: as §1

[5] = system: E. coli AR# 48; assay: as above
Method: as §1

[6] = system: K. pneumoniae (Kp) AR# 98; assay: as above
Method: as §1

[7] = system: A. baumannii (Ab) AR# 35; assay: as above
Method: as §1

[8] = system: A. baumannii (Ab) AR# 37; assay: as above
Method: as §1

[9] = system: A. baumannii (Ab) AR# 36; assay: as above
Method: as §1

[10] = system: A. baumannii (Ab) AR# 88; assay: as above
Method: as §1

[11] = system: K. pneumoniae (Kp) AR# 40; assay: as above
Method: as §1

[12] = system: A. baumannii (Ab) AR# 45; assay: as above
Method: as §1

[13] = system: A. baumannii (Ab) AR# 33; assay: as above
Method: as §1

[14] = system: K. pneumoniae (Kp) AR# 41; assay: as above
Method: as §1

[15] = system: A. baumannii (Ab) AR# 83; assay: as above
Method: as §1

[16] = system: A. baumannii (Ab) AR# 52; assay: as above
Method: as §1

[17] = system: A. baumannii (Ab) AR# 63; assay: as above
Method: as §1

[18] = system: K. pneumoniae ATCC BAA-2146; assay: MIC of carbapenems in presence and absence of 2-aminoimidazole compounds; details: Klebsiella pneumoniae, no 2-AI compound (None)
Excerpt: (§2) The minimal inhibitory concentration (MIC) values of imipenem (I); meropenem (M) and doripenem (D) in the presence and absence of 2-aminoimidazole compounds are provided in Table 1. The concentration of each compound used in μM in the MIC assay is shown in parentheses.

[19] = system: K. pneumoniae ATCC BAA-1705; assay: as above; details: Klebsiella pneumoniae, no 2-AI compound (None)
Excerpt: as §2

[20] = system: A. baumannii AB5075; assay: as above; details: Acinetobacter baumannii, no 2-AI compound (None)
Excerpt: as §2

[21] = system: A. baumannii ATCC BAA-1605; assay: as above; details: Acinetobacter baumannii, no 2-AI compound (None)
Excerpt: as §2

[22] = 2 μM of 2-amino imidazole compound
[23] = 15 μM of 2-amino imidazole compound
[24] = 30 μM of 2-amino imidazole compound
[25] = 7 μM of 2-amino imidazole compound
[26] = 60 μM of 2-amino imidazole compound
[27] = 16 μM of 2-amino imidazole compound
[28] = 32 μM of 2-amino imidazole compound
[29] = 64 μM of 2-amino imidazole compound
[30] = 8 μM of 2-amino imidazole compound
[31] = Acinetobacter baumannii, no compound (None), read-out: Minimum Inhibitory Concentration of Meropenem
[32] = Escherichia coli, no compound (None), read-out: Minimum Inhibitory Concentration of Meropenem
[33] = Klebsiella pneumoniae, no compound (None), read-out: Minimum Inhibitory Concentration of Meropenem

For Nc1ncc(-c2cccc(NC(=O)Nc3cccc(-c4cnc(N)[nH]4)c3)c2)[nH]1 [Compound 92, 1,3-bis(3-(2-amino-1H-imidazol-5-yl)phenyl)urea], the “Minimum Inhibitory Concentration of Meropenem” value [1, 22] was 4 (2) μg/mL, the “Minimum Inhibitory Concentration of Meropenem” value [2, 23] was 128 (15) μg/mL and the “Minimum Inhibitory Concentration of Meropenem” value [3, 24] was 64 (30) μg/mL. For the same compound, the “Minimum Inhibitory Concentration of Meropenem” value [4, 23] was 8 (15) μg/mL, the “Minimum Inhibitory Concentration of Meropenem” value [5, 25] was 256 (7) μg/mL and the “Minimum Inhibitory Concentration of Meropenem” value [6, 26] was 64 (60) μg/mL. For the same compound, the “Minimum Inhibitory Concentration of Meropenem” value [7, 24] was 8 (30) μg/mL, the “Minimum Inhibitory Concentration of Meropenem” value [8, 23] was 32 (15) μg/mL and the “Minimum Inhibitory Concentration of Meropenem” value [9, 23] was 4 (15) μg/mL. The “Minimum Inhibitory Concentration of Meropenem” value [10, 23] was 64 (15) μg/mL, the “Minimum Inhibitory Concentration of Meropenem” value [11, 26] was 256 (60) μg/mL and the “Minimum Inhibitory Concentration of Meropenem” value [12, 25] was 2 (7) μg/mL. The “Minimum Inhibitory Concentration of Meropenem” value [13, 23] was 12 (15) μg/mL, the “Minimum Inhibitory Concentration of Meropenem” value [14, 26] was 64 (60) μg/mL and the “Minimum Inhibitory Concentration of Meropenem” value [15, 23] was 64 (15) μg/mL. The “Minimum Inhibitory Concentration of Meropenem” value [16, 22] was 2 (2) μg/mL and the “Minimum Inhibitory Concentration of Meropenem” value [17, 25] was 8 (7) μg/mL.
Nc1ncc(-c2ccc(NC(=O)Nc3ccc(-c4cnc(N)[nH]4)cc3)cc2)[nH]1 [Compound 93, 1,3-bis(4-(2-amino-1H-imidazol-5-yl)phenyl)urea] was tested, and the “Minimum Inhibitory Concentration of Meropenem” value [1, 25] was 1 (7) μg/mL, the “Minimum Inhibitory Concentration of Meropenem” value [2, 27] was 128 (16) μg/mL and the “Minimum Inhibitory Concentration of Meropenem” value [3, 28] was 32 (32) μg/mL. The “Minimum Inhibitory Concentration of Meropenem” value [4, 23] was 16 (15) μg/mL, the “Minimum Inhibitory Concentration of Meropenem” value [5, 28] was 16 (32) μg/mL and the “Minimum Inhibitory Concentration of Meropenem” value [6, 28] was 32 (32) μg/mL. For the same compound, the “Minimum Inhibitory Concentration of Meropenem” value [7, 23] was 32 (15) μg/mL, the “Minimum Inhibitory Concentration of Meropenem” value [8, 25] was 64 (7) μg/mL and the “Minimum Inhibitory Concentration of Meropenem” value [9, 23] was 16 (15) μg/mL. The “Minimum Inhibitory Concentration of Meropenem” value [10, 25] was 64 (7) μg/mL, the “Minimum Inhibitory Concentration of Meropenem” value [11, 29] was 1024 (64) μg/mL and the “Minimum Inhibitory Concentration of Meropenem” value [12, 25] was 2 (7) μg/mL. For the same compound, the “Minimum Inhibitory Concentration of Meropenem” value [13, 25] was 64 (7) μg/mL, the “Minimum Inhibitory Concentration of Meropenem” value [14, 29] was 8 (64) μg/mL and the “Minimum Inhibitory Concentration of Meropenem” value [15, 23] was 64 (15) μg/mL. The “Minimum Inhibitory Concentration of Meropenem” value ([16]; 4 μM of 2-amino imidazole compound) was 3 (4) μg/mL and the “Minimum Inhibitory Concentration of Meropenem” value [17, 23] was 8 (15) μg/mL.
Nc1ncc(-c2ccc(NC(=O)Nc3ccc4c(c3)-c3[nH]c(N)nc3CC4)cc2)[nH]1 [Compound 97, 1-(4-(2-amino-1H-imidazol-5-yl)phenyl)-3-(2-amino-4,5-dihydro-1H-naphtho[1,2-d]imidazol-8-yl)urea] was tested, and the “Minimum Inhibitory Concentration of Meropenem” value [1, 30] was 0.5 (8) μg/mL, the “Minimum Inhibitory Concentration of Meropenem” value [2, 28] was 256 (32) μg/mL and the “Minimum Inhibitory Concentration of Meropenem” value [3, 28] was 64 (32) μg/mL. For the same compound, the “Minimum Inhibitory Concentration of Meropenem” value [4, 30] was 2 (8) μg/mL, the “Minimum Inhibitory Concentration of Meropenem” value [5, 27] was 128 (16) μg/mL and the “Minimum Inhibitory Concentration of Meropenem” value [6, 27] was 32 (16) μg/mL. For the same compound, the “Minimum Inhibitory Concentration of Meropenem” value [7, 30] was 2 (8) μg/mL, the “Minimum Inhibitory Concentration of Meropenem” value [8, 30] was 32 (8) μg/mL and the “Minimum Inhibitory Concentration of Meropenem” value [9, 30] was 1 (8) μg/mL. For the same compound, the “Minimum Inhibitory Concentration of Meropenem” value [10, 27] was 32 (16) μg/mL, the “Minimum Inhibitory Concentration of Meropenem” value [11, 29] was 1024 (64) μg/mL and the “Minimum Inhibitory Concentration of Meropenem” value [12, 30] was 1 (8) μg/mL. The “Minimum Inhibitory Concentration of Meropenem” value [13, 27] was 4 (16) μg/mL, the “Minimum Inhibitory Concentration of Meropenem” value [14, 29] was 16 (64) μg/mL and the “Minimum Inhibitory Concentration of Meropenem” value [15, 30] was 16 (8) μg/mL. The “Minimum Inhibitory Concentration of Meropenem” value [16, 22] was 2 (2) μg/mL and the “Minimum Inhibitory Concentration of Meropenem” value [17, 30] was 8 (8) μg/mL.
In the case of C[C@@H](O)[C@H]1C(=O)N2C(C(=O)O)=C(S[C@@H]3CN[C@H](CNS(N)(=O)=O)C3)[C@H](C)[C@H]12 [D, doripenem], the MIC ([18]; read-out: MIC of doripenem (D)) is reported as 256 µg/mL, the MIC ([19]; read-out: MIC of doripenem (D)) is reported as 64 µg/mL and the MIC ([20]; read-out: MIC of doripenem (D)) is reported as 32 µg/mL. For the same compound, the MIC ([21]; read-out: MIC of doripenem (D)) was 32 µg/mL.
C[C@@H](O)[C@H]1C(=O)N2C(C(=O)O)=C(SCCN=CN)C[C@H]12 [I, imipenem] showed an MIC ([18]; read-out: MIC of imipenem (I)) of 128 µg/mL, an MIC ([19]; read-out: MIC of imipenem (I)) of 64 µg/mL and an MIC ([20]; read-out: MIC of imipenem (I)) of 32 µg/mL. The MIC ([21]; read-out: MIC of imipenem (I)) was 32 µg/mL.
In the case of C[C@@H](O)[C@H]1C(=O)N2C(C(=O)O)=C(S[C@@H]3CN[C@H](C(=O)N(C)C)C3)[C@H](C)[C@H]12 [M, meropenem, reference compound], the MIC ([18]; read-out: MIC of meropenem) is reported as 256 µg/mL, the MIC ([19]; read-out: MIC of meropenem) is reported as 64 µg/mL and the MIC ([20]; read-out: MIC of meropenem) is reported as 32 µg/mL. For the same compound, the MIC ([21]; read-out: MIC of meropenem) was 32 µg/mL, the MIC [1, 31] was 8 µg/mL and the MIC [2, 32] was 256 µg/mL. It also gave an MIC [3, 33] of 512 µg/mL, an MIC [4, 31] of 32 µg/mL and an MIC [5, 32] of 256 µg/mL. It also gave an MIC [6, 33] of 128 µg/mL, an MIC [7, 31] of 128 µg/mL and an MIC [8, 31] of 256 µg/mL. The MIC [9, 31] was 128 µg/mL, the MIC [10, 31] was 512 µg/mL and the MIC [11, 33] was 1020 µg/mL. The MIC [12, 31] was 16 µg/mL, the MIC [13, 31] was 128 µg/mL and the MIC [14, 33] was 64 µg/mL. For the same compound, the MIC [15, 31] was 256 µg/mL, the MIC [16, 31] was 8 µg/mL and the MIC [17, 31] was 128 µg/mL.
